PMC6486608, “A cell-penetrating peptide blocks Toll-like receptor-mediated downstream signaling and ameliorates autoimmune and inflammatory diseases in mice” (Experimental & Molecular Medicine, 2019)
pKd: −log10 of the molar value. Ends that are not written are not given here.

Columns and labels:
[1] = tested on: CIA mouse model (DBA/1J mice); experiment: RA in a model of CIA; format: in vivo; settings: i.p. daily
Description: All animal care and experimental procedures were conducted in accordance with the National Institute of Health Guide for the Care and Use of Laboratory Animals and were approved by the Animal Care and Use Committee of Kyung Hee University [Permit number: KHUASP(SE)-15-115]. Male DBA/1J mice weighing 20–23 g (6–7 weeks old) were purchased from Central Lab Animal Inc. (Seoul, Korea). The mice were housed in a limited-access rodent facility at 22–24 °C with up to four animals per polycarbonate cage under a 12:12-h light/dark cycle with free access to pelleted food and water. CIA was implemented according to the protocol previously described. Briefly, the mice were immunized at the base of the tail with a mixture of 100 μg of chicken type II collagen (CII, Sigma-Aldrich) and an equal volume of complete Freund’s adjuvant (Sigma-Aldrich); this time point was designated as day 0. The mice were then given a booster (second) injection of the mixture on day 14. […] To evaluate arthritis progression in the CIA mice, body weight, paw volume, squeaking score, and the arthritic index were measured. The mouse body weights were measured using a digital balance (Mettler-Toledo Inc., Columbus, OH, USA). Joint pain in the hindlimb was evaluated by scoring squeaking during forced flexion and extension of the hindlimb ankle joint 10 times every 5 s. […] Total numbers of vocalizations detected by the observer were then calculated as the squeaking score. Paw volume was measured by the volume displacement of an electrolyte solution using a water-displacement plethysmometer (Ugo-Basile Biological Research Apparatus Co., Comerio-Varese, Italy) as described elsewhere[13],[14]. The hind paw was immersed to the level of the hairy skin, and the volumes were read on a digital display. Paw volume was expressed as a relative value compared with that on day 0, which was defined as 1.0 (100%). […]

[2] = biological target: T1, BB loop (710-RDFIPGVAIAA-720) of the TLR4-TIR domain (Homo sapiens, UniProt O00206); experiment: SPR, BB loop; format: binding
T1 construct: Synthetic peptides encoding the BB loop (710-RDFIPGVAIAA-720) of the TIR domain were immobilized; purchased Peptron, Inc. (Daejeon, Korea); host or cells: chemical synthesis
Description: The SPR experiments were conducted using a ProteOn XPR36 instrument (Bio-Rad Laboratories, Inc.) with a ProteOn NLC sensor chip. PBST served as running buffer, and 0.85% phosphoric acid or PBST was used for regeneration. Synthetic peptides encoding the BB loop (710-[…]-720) of the TIR domain were immobilized by NeutrAvidin bound to the GLC polymer layer onto surfaces of an NLC sensor chip as described in the protocol. Different concentrations of TIP1 (12.5, 25, or 50 μM) were run into the chip to check their binding with the immobilized peptides. Running buffer was injected into an empty channel as a reference. The dissociation was monitored for 5 min, and the chip was regenerated for the second round. ProteOn Manager software (version 2.0) was employed to analyze the data. The binding curves were processed for the start injection alignment and baseline. A reference-subtracted sensorgram was fitted globally to the curves describing a homogeneous 1:1 model. Data from various doses of TIP1 were grouped together to fit the kinetic rate constants (ka and kd). The equilibrium dissociation constant, KD, was calculated according to the equation KD = kd/ka. Surface plasmon resonance (SPR) is a powerful technique used for high-throughput screening and is considered a potent tool for drug discovery. SPR can provide detailed information on peptide-receptor binding kinetics or small-molecule-protein or protein-protein interactions. […] The association rate constant (ka), dissociation rate constant (kd), and equilibrium dissociation constant (KD) of TIP1 were measured in a dose-dependent manner (Fig. 4a). […] Later, the fluorescence intensities of TIP1-FITC, TLR4, and MyD88 were measured by immunofluorescent staining and confocal microscopy. […] The expression levels of TLR4 and MyD88 and the localization of TIP1-FITC were determined by immunofluorescent staining and confocal microscopy. Orthogonal projections, 3D image reconstruction, and fluorescence intensity profiles of confocal images show localization of TIP1-FITC and TLR4.

| Compound | body weight, average ([1]; TIP1 10 nmol/g or prednisolone 5 mg/kg, CIA 16.9 g, normal 21.9 g) [g] | arthritis index score ([1]; TIP1 10 nmol/g or prednisolone) | squeaking and paw volume increase ([1]; TIP1 10 nmol/g or prednisolone) | kon ([2]; homogeneous 1:1 model, global fit of 12.5, 25, 50 µM, read-out: ka (association rate constant)) [M⁻¹ s⁻¹] | koff ([2]; homogeneous 1:1 model, global fit of 12.5, 25, 50 µM, read-out: kd (dissociation rate constant)) [s⁻¹] | pKd ([2]; printed in figure 4a, calculated as kd/ka) |
| --- | --- | --- | --- | --- | --- | --- |
| C[C@]12C=CC(=O)C=C1CC[C@@H]1[C@@H]2[C@@H](O)C[C@@]2(C)[C@H]1CC[C@]2(O)C(=O)CO [prednisolone] | 21.0 | significantly decreased the index score | highly increased in the CIA mice compared with normal mice but not in the TIP1 (10 nmol/g)- or prednisolone-injected mice | – | – | – |
| RQIKIWFQNRRMKWKKSHCRVLLI [TIP1] | – | – | – | 187 | 0.00782 | 4.38 |
